{"source": "patent US8772235B2", "about": "“Compounds having peptides conjugated to bone targeting moieties and methods of making and using thereof” (The Governors of the University of Alberta, priority 2009, dated 2014)", "key": {"[1]": {"test": "Effect on plasma calcium level in normal rats (SMCC series)", "assay_type": "in vivo, rat", "settings": "20 IU sCT/kg equivalent, subcutaneous", "experimental": "(§1) Pharmacodynamic response of sCT analogue was evaluated by analyzing plasma calcium concentration in the rat model. Sprague Dawley female rats weighing 230-260 g (about 6 weeks old) were purchased from Charles River, USA and housed at the University of Alberta Animal Holding Unit. All experimental protocols were approved by the Animals Ethics Committee of the University of Alberta. The rats were divided randomly into five groups of 3 animals each and the pharmacodynamic response was assessed following subcutaneous administration of the sCT or analogue equivalent to 20 IU sCT/kg body weight. Rats were anesthetized using Isoflurane inhalation anesthesia and the 200 μl blood samples were obtained in heparinized Eppendorf microtubes before drug injection. Then 100 μl of sCT or equivalent dose in 20 mM Sodium Acetate buffer pH 5 was sub cu injected and the blood samples were collected 1, 2, 3 and 4 hrs post injection from jugular vein. Blood plasma was obtained by centrifuging the samples at 5000 rpm for 10 min and collecting the supernatant. Plasma calcium level was assayed by QuantiChrom™ Calcium Assay Kit (BioAssay Systems, CA USA) and the plasma phosphate level was assayed by QuantiChrom™ Phosphate Assay Kit (BioAssay Systems, CA USA)."}, "[2]": {"test": "Bone mineral specificity: calcium pyrophosphate binding assay", "settings": "1 h, 100 mM phosphate buffer pH 7", "experimental": "(§2) Bone targeting potential of sCT analogue was evaluated by determining the effect of sCT modification (due to chemical coupling) upon its bone mineral affinity. Specific volume of purified sCT analogue solution containing 10 μg of sCT was mixed with 1 mg Hydroxyapatite (HA) in 150 μL 100 mM phosphate buffer (pH 7.0) in microcentrifuge tubes in duplicate to give a final concentration of 66.67 μg/ml sCT. As a reference, control samples were incubated in tubes without HA (i.e., 0% of binding).\n(§3) The tubes were incubated at room temperature on a shaker for 1 h, and centrifuged at 5000 g for 5 minutes to separate the HA from the supernatant. sCT concentration in the supernatant was determined using the BCA microprotein assay (Pierce, USA) as described above. HA centrifugate remaining after removal of supernatant was washed five times using 1 mL buffer each time and the last washing after centrifugation at 5000 g for 5 minutes was collected. Both the washings and the HA centrifugate were then analyzed for sCT as described above. The amount of sCT in the supernatant, washings and HA centrifugate was then inferred by measuring the absorbance at 562 nm, with a value of 100% for control samples without HA.\n(§4) Bone mineral specificity of sCT analogue was then determined in the above manner using HA, calcium carbonate, calcium pyrophosphate, tricalcium phosphate and calcium oxalate."}, "[3]": {"tested_on": "RAW 264.7 cells", "test": "MTT cytotoxicity on osteoclast precursor RAW 264.7 cells (PEG series)", "assay_type": "cell-based, mouse", "settings": "100, 500 and 1000 nM sCT or equivalent, 4 hours incubation", "experimental": "RAW 264.7 cells (ATCC VA, USA) were seeded on 96 well plates at an initial density of 2×10^4 cells/well and incubated in 200 μl GIBCO High Glucose 1× Dulbecco's Modified Eagle Medium (DMEM) (Invitrogen CA, USA) supplemented with 4.5 g/L D-Glucose, L-Glutamine, 110 mg/L Sodium Pyruvate, 10% heat inactivated fetal bovine serum (FBS) and 1% Penicillin-Streptomycin (10000 U/mL; Invitrogen) in a Thermo Fisher Scientific Water Jacketed CO2 incubator (37° C., 5% CO2) until the cells were 80% confluent.\nAfter 72 hrs, media was replaced by 200 μl basic DMEM media without FBS and incubated for 30 minutes. […] After removing the supernatant and washing twice with phosphate buffer saline, purple formazan crystals formed were dissolved in 200 μl solubilization solution (in vitro toxicology assay kit, # TOX-1, Sigma Aldrich, St. Louis, USA) and the absorbance was measured at 570 nm using microplate reader. Experiment was performed for n=8 and the absorbance of wells containing cells without sCT treatment was considered as 100% viable and used to calculate the relative viability of sCT treated cells.\nIn all in vitro and in vivo bioactivity assay the maximum concentration used was equivalent to 100 nM sCT. However, cytoxicity was determined for the concentration up to 1000 nM sCT or equivalent. […]"}, "[4]": {"test": "Effect on plasma phosphate level in normal rats (PEG series)", "assay_type": "in vivo, rat", "settings": "20 IU sCT/kg equivalent, subcutaneous", "experimental": "as §1, with “was” for “was sub cu”"}, "[5]": {"test": "Bone mineral specificity: calcium carbonate binding assay", "settings": "1 h, 100 mM phosphate buffer pH 7", "experimental": "as §2, §3, §4"}, "[6]": {"test": "Bone mineral specificity: calcium oxalate binding assay", "settings": "1 h, 100 mM phosphate buffer pH 7", "experimental": "as §2, §3, §4"}, "[7]": {"test": "Bone mineral specificity: tri-calcium phosphate binding assay", "settings": "1 h, 100 mM phosphate buffer pH 7", "experimental": "as §2, §3, §4"}, "[8]": {"settings": "first hour, vs acetate buffer controls"}}, "data": [{"substance": "Salmon calcitonin [sCT, reference compound]", "values": [{"measurement": "percentage of plasma calcium reduction", "setting": "[1]; 4 hour post dosing", "value": "32.03±2.11", "unit": "%"}, {"measurement": "percentage of plasma calcium reduction", "setting": "[1]; [8]", "value": "20.33±5.5", "unit": "%"}, {"measurement": "percentage of plasma calcium reduction", "setting": "[1]; second hour", "value": "28.98±4.65", "unit": "%"}, {"measurement": "percentage of plasma calcium reduction", "setting": "[1]; third hour", "value": "29.85±4.11", "unit": "%"}, {"measurement": "sCT recovered in supernatant after incubation with Calcium Pyrophosphate", "setting": "[2]", "value": "did not significantly reduce the sCT concentration in the supernatant"}, {"measurement": "cytotoxicity (absorbance of formazan solution) compared to untreated media", "setting": "[3]", "value": "low levels of cytotoxicity"}, {"measurement": "percentage of plasma phosphate reduction", "setting": "[4]; 4 hour post dosing", "value": "15.7±3.7", "unit": "%"}, {"measurement": "percentage of plasma phosphate reduction", "setting": "[4]; [8]", "value": "22.1±6.24", "unit": "%"}, {"measurement": "percentage of plasma phosphate reduction", "setting": "[4]; second hour", "value": "22.7±13.01", "unit": "%"}, {"measurement": "sCT concentration in supernatant after incubation with Calcium carbonate", "setting": "[5]", "value": "did not significantly reduce the sCT concentration in the supernatant"}, {"measurement": "sCT recovered in supernatant after incubation with Calcium oxalate", "setting": "[6]", "value": "did not significantly reduce the sCT concentration in the supernatant"}, {"measurement": "sCT bound to Tri-Calcium Phosphate", "setting": "[7]", "value": "no significant difference in the affinity"}]}]}
